Results on five compounds are retold here after patent US12281149B2, “Modulators of G-protein coupled receptors” (priority 2021, dated 2025).

The structures appear in SMILES notation. *1 amine or outer side, *2 acyl side, *3 side chain or, on linkers, in order; H or OH if unused. Where a SMILES comes first, the peptide text is derived from it. Side-chain parts run from the residue outwards. [ ]: non-standard residue; d: D form. The star is where a group is joined. Isobutyryl(2-(3-CN-5-F-Ph)) = CC(C)(C(=O)*)c1cc(F)cc(C#N)c1; C20 diacid = O=C(O)CCCCCCCCCCCCCCCCCCC(=O)*; γGlu = O=C(O)[C@H](CCC(=O)[*:2])N[*:1]; X69 = CC(C)(C(=O)*)c1c(F)cccc1F; X30 = CC(C)(C(=O)*)c1ccc(F)cc1; X26 = O=C(C1(c2ccccc2)CCCC1)*; d(β3hA) = C[C@@H](N)CC(=O)O; X29 = Fc1ccc(N*)c(F)c1; AEEA = NCCOCCOCC(=O)O; Aib = CC(C)(N)C(=O)O; CO = O=C([*:1])[*:2]; GABA = NCCCC(=O)O; βAla = NCCC(=O)O

Holding throughout (type): cell-based
For test [1], the target named is T1, GIP receptor (Homo sapiens, UniProt P48546).
T1 sequence (P48546 22-466): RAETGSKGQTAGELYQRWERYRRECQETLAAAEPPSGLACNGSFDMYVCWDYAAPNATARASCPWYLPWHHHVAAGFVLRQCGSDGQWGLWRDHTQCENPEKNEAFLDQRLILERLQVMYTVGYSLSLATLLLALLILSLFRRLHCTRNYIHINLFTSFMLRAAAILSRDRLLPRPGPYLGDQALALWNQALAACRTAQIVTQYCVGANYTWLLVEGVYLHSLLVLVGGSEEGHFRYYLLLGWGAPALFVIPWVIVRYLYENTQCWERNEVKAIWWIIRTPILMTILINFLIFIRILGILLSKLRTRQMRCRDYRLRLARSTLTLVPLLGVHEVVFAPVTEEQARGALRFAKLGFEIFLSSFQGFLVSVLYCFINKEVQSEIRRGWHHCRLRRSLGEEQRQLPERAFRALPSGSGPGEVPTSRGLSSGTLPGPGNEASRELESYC
Put plainly: HitHunter cAMP assay, GIP receptor. As to conditions: for EC50: CHO cells stably expressing GIP receptor, cAMP accumulation, 30 min, read-out: EC50 GIP-1R; for Emax: CHO cells, cAMP, normalized to maximum signal from GIP (high) and DMSO (low), read-out: Emax GIP-1R.

Test [2] addresses T2, GLP-1 receptor (Homo sapiens, UniProt P43220). Put plainly: HitHunter cAMP assay, GLP-1 receptor. As to conditions: for EC50: CHO cells stably expressing human GLP-1 receptor, cAMP accumulation, 30 min, read-out: EC50 GLP-1R; for Emax: CHO cells, cAMP, normalized to maximum signal from GLP-1 (high) and DMSO (low), read-out: Emax GLP-1R.
Test [3] addresses T2, GLP-1 receptor. As to the kind of experiment: PathHunter β-arrestin assay, GLP-1 receptor. Further details: host or cells: PathHunter CHO-K1 GLP1R β-Arrestin Cell Line. Particulars: β-arrestin-2 recruitment, PathHunter CHO-K1 GLP1R β-Arrestin Cell Line, 90 min at 37° C.; normalized to GLP-1; read-out: GLP-1R β Arrestin EC50.
The target in test [4] is T1, GIP receptor. Put plainly: PathHunter β-arrestin assay, GIP receptor. Details: host or cells: PathHunter CHO-K1 GIPR β-Arrestin Cell Line. Particulars: β-arrestin-2 recruitment, PathHunter CHO-K1 GIPR β-Arrestin Cell Line, 90 min at 37° C.; normalized to GIP; read-out: GIPR β Arrestin EC50.

T2 sequence (P43220 24-463): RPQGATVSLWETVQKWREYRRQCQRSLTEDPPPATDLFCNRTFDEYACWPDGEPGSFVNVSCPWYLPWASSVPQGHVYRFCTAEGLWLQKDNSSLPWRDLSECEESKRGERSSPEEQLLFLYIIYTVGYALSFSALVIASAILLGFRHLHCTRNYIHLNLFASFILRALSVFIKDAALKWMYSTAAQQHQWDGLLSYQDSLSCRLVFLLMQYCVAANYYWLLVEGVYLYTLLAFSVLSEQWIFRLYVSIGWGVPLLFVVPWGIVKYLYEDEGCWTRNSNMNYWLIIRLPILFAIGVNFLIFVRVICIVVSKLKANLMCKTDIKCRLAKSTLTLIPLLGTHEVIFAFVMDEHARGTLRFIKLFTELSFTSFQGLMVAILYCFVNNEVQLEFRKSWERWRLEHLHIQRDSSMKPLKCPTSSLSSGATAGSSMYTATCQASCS

Regarding `CC[C@H](C)[C@H](NC(=O)[C@H](CC(C)C)NC(=O)[C@H](Cc1c[nH]c2ccccc12)NC(=O)[C@H](CCC(N)=O)NC(=O)[C@@H](NC(=O)[C@H](Cc1ccccc1)NC(=O)[C@H](C)NC(=O)[C@H](CCCCNC(=O)COCCOCCNC(=O)COCCOCCNC(=O)CC[C@H](NC(=O)CCCCCCCCCCCCCCCCCCC(=O)O)C(=O)O)NC(=O)[C@H](CCC(N)=O)NC(=O)[C@H](C)NC(=O)[C@@H](NC(=O)[C@H](CCCCN)NC(=O)[C@H](CC(=O)O)NC(=O)[C@H](CC(C)C)NC(=O)C(C)(C)NC(=O)[C@@H](NC(=O)[C@H](CO)NC(=O)[C@H](Cc1ccc(O)cc1)NC(=O)[C@H](CC(=O)O)NC(=O)[C@H](CO)NC(=O)[C@@H](NC(=O)[C@H](Cc1ccccc1)NC(=O)[C@@H](NC(=O)CNC(=O)[C@H](CCC(=O)O)NC(=O)CCCNC(=O)CNC(=O)Nc1ccc(F)cc1F)[C@@H](C)O)[C@@H](C)O)[C@@H](C)CC)[C@@H](C)CC)C(C)C)C(=O)N[C@@H](C)C(=O)NCC(=O)NCC(=O)N1CCC[C@H]1C(=O)N[C@@H](CO)C(=O)N[C@@H](CO)C(=O)NCC(=O)N[C@@H](C)C(=O)N1CCC[C@H]1C(=O)N1CCC[C@H]1C(=O)N1CCC[C@H]1C(=O)N[C@@H](CO)C(N)=O` [Compound 267] ({X29-CO}-G[GABA]EGTFTSDYSI[Aib]LDKIAQK([AEEA-AEEA-γGlu-C20 diacid])AFVQWLIAGGPSSGAPPPS-NH2), the EC50 at GIP receptor [1] was 1 to 10 nM; on GLP-1 receptor [2] it was 1 to 10 nM; on GLP-1 receptor [3] it was greater than 1000 nM; on GIP receptor [4] it was greater than 1000 nM. Moreover, the Emax at GIP receptor [1] was found to be 106%; at GLP-1 receptor [2] it was 105%.
Take `CC[C@H](C)[C@H](NC(=O)[C@H](CC(C)C)NC(=O)[C@H](Cc1c[nH]c2ccccc12)NC(=O)[C@H](CCC(N)=O)NC(=O)[C@@H](NC(=O)[C@H](Cc1ccccc1)NC(=O)[C@H](C)NC(=O)[C@H](CCCCNC(=O)COCCOCCNC(=O)COCCOCCNC(=O)CC[C@H](NC(=O)CCCCCCCCCCCCCCCCCCC(=O)O)C(=O)O)NC(=O)[C@H](CCC(N)=O)NC(=O)[C@H](C)NC(=O)[C@@H](NC(=O)[C@H](CCCCN)NC(=O)[C@H](CC(=O)O)NC(=O)[C@H](CC(C)C)NC(=O)C(C)(C)NC(=O)[C@@H](NC(=O)[C@H](CO)NC(=O)[C@H](Cc1ccc(O)cc1)NC(=O)[C@H](CC(=O)O)NC(=O)[C@H](CO)NC(=O)[C@@H](NC(=O)[C@H](Cc1ccccc1)NC(=O)[C@@H](NC(=O)CNC(=O)[C@H](CCC(=O)O)NC(=O)C[C@@H](C)NC(=O)C(C)(C)c1cc(F)cc(C#N)c1)[C@@H](C)O)[C@@H](C)O)[C@@H](C)CC)[C@@H](C)CC)C(C)C)C(=O)N[C@@H](C)C(=O)NCC(=O)NCC(=O)N1CCC[C@H]1C(=O)N[C@@H](CO)C(=O)N[C@@H](CO)C(=O)NCC(=O)N[C@@H](C)C(=O)N1CCC[C@H]1C(=O)N1CCC[C@H]1C(=O)N1CCC[C@H]1C(=O)N[C@@H](CO)C(N)=O` [Compound 223] ({Isobutyryl(2-(3-CN-5-F-Ph))}-[d(β3hA)]EGTFTSDYSI[Aib]LDKIAQK([AEEA-AEEA-γGlu-C20 diacid])AFVQWLIAGGPSSGAPPPS-NH2): the EC50 is 100 to 1000 nM at GIP receptor [1], 10 to 100 nM at GLP-1 receptor [2], greater than 1000 nM at GLP-1 receptor [3] and greater than 1000 nM at GIP receptor [4]. Besides, the figures for the Emax at GIP receptor [1] and at GLP-1 receptor [2] were 42% and 96%, respectively.
For `CC[C@H](C)[C@H](NC(=O)[C@H](CC(C)C)NC(=O)[C@H](Cc1c[nH]c2ccccc12)NC(=O)[C@H](CCC(N)=O)NC(=O)[C@@H](NC(=O)[C@H](Cc1ccccc1)NC(=O)[C@H](C)NC(=O)[C@H](CCCCNC(=O)COCCOCCNC(=O)COCCOCCNC(=O)CC[C@H](NC(=O)CCCCCCCCCCCCCCCCCCC(=O)O)C(=O)O)NC(=O)[C@H](CCC(N)=O)NC(=O)[C@H](C)NC(=O)[C@@H](NC(=O)[C@H](CCCCN)NC(=O)[C@H](CC(=O)O)NC(=O)[C@H](CC(C)C)NC(=O)C(C)(C)NC(=O)[C@@H](NC(=O)[C@H](CO)NC(=O)[C@H](Cc1ccc(O)cc1)NC(=O)[C@H](CC(=O)O)NC(=O)[C@H](CO)NC(=O)[C@@H](NC(=O)[C@H](Cc1ccccc1)NC(=O)[C@@H](NC(=O)CNC(=O)[C@H](CCC(=O)O)NC(=O)CCNC(=O)C1(c2ccccc2)CCCC1)[C@@H](C)O)[C@@H](C)O)[C@@H](C)CC)[C@@H](C)CC)C(C)C)C(=O)N[C@@H](C)C(=O)NCC(=O)NCC(=O)N1CCC[C@H]1C(=O)N[C@@H](CO)C(=O)N[C@@H](CO)C(=O)NCC(=O)N[C@@H](C)C(=O)N1CCC[C@H]1C(=O)N1CCC[C@H]1C(=O)N1CCC[C@H]1C(=O)N[C@@H](CO)C(N)=O` [Compound 236] ({X26-βAla}-EGTFTSDYSI[Aib]LDKIAQK([AEEA-AEEA-γGlu-C20 diacid])AFVQWLIAGGPSSGAPPPS-NH2), the EC50 is 1 to 10 nM at GIP receptor [1], 0.1 to 1 nM on GLP-1 receptor [2], greater than 1000 nM on GLP-1 receptor [3] and greater than 1000 nM at GIP receptor [4]. Moreover, the Emax stood at 114% at GIP receptor [1] and 127% at GLP-1 receptor [2].
Turning to `CC[C@H](C)[C@H](NC(=O)[C@H](CC(C)C)NC(=O)[C@H](Cc1c[nH]c2ccccc12)NC(=O)[C@H](CCC(N)=O)NC(=O)[C@@H](NC(=O)[C@H](Cc1ccccc1)NC(=O)[C@H](C)NC(=O)[C@H](CCCCNC(=O)COCCOCCNC(=O)COCCOCCNC(=O)CC[C@H](NC(=O)CCCCCCCCCCCCCCCCCCC(=O)O)C(=O)O)NC(=O)[C@H](CCC(N)=O)NC(=O)[C@H](C)NC(=O)[C@@H](NC(=O)[C@H](CCCCN)NC(=O)[C@H](CC(=O)O)NC(=O)[C@H](CC(C)C)NC(=O)C(C)(C)NC(=O)[C@@H](NC(=O)[C@H](CO)NC(=O)[C@H](Cc1ccc(O)cc1)NC(=O)[C@H](CC(=O)O)NC(=O)[C@H](CO)NC(=O)[C@@H](NC(=O)[C@H](Cc1ccccc1)NC(=O)[C@@H](NC(=O)CNC(=O)[C@H](CCC(=O)O)NC(=O)CCNC(=O)C(C)(C)c1c(F)cccc1F)[C@@H](C)O)[C@@H](C)O)[C@@H](C)CC)[C@@H](C)CC)C(C)C)C(=O)N[C@@H](C)C(=O)NCC(=O)NCC(=O)N1CCC[C@H]1C(=O)N[C@@H](CO)C(=O)N[C@@H](CO)C(=O)NCC(=O)N[C@@H](C)C(=O)N1CCC[C@H]1C(=O)N1CCC[C@H]1C(=O)N1CCC[C@H]1C(=O)N[C@@H](CO)C(N)=O` [Compound 163] ({X69-βAla}-EGTFTSDYSI[Aib]LDKIAQK([AEEA-AEEA-γGlu-C20 diacid])AFVQWLIAGGPSSGAPPPS-NH2), the 50% effective concentration (EC50) at GIP receptor [1] is 10 to 100 nM; on GLP-1 receptor [2] it was 0.1 to 1 nM; on GLP-1 receptor [3], greater than 1000 nM; at GIP receptor [4] it was less than 1000 nM. The Emax on GIP receptor [1] came out at 105%; at GLP-1 receptor [2], 104%.
In the case of `CC[C@H](C)[C@H](NC(=O)[C@H](CC(C)C)NC(=O)[C@H](Cc1c[nH]c2ccccc12)NC(=O)[C@H](CCC(N)=O)NC(=O)[C@@H](NC(=O)[C@H](Cc1ccccc1)NC(=O)[C@H](C)NC(=O)[C@H](CCCCNC(=O)COCCOCCNC(=O)COCCOCCNC(=O)CC[C@H](NC(=O)CCCCCCCCCCCCCCCCCCC(=O)O)C(=O)O)NC(=O)[C@H](CCC(N)=O)NC(=O)[C@H](C)NC(=O)[C@@H](NC(=O)[C@H](CCCCN)NC(=O)[C@H](CC(=O)O)NC(=O)[C@H](CC(C)C)NC(=O)C(C)(C)NC(=O)[C@@H](NC(=O)[C@H](CO)NC(=O)[C@H](Cc1ccc(O)cc1)NC(=O)[C@H](CC(=O)O)NC(=O)[C@H](CO)NC(=O)[C@@H](NC(=O)[C@H](Cc1ccccc1)NC(=O)[C@@H](NC(=O)CNC(=O)[C@H](CCC(=O)O)NC(=O)CCNC(=O)C(C)(C)c1ccc(F)cc1)[C@@H](C)O)[C@@H](C)O)[C@@H](C)CC)[C@@H](C)CC)C(C)C)C(=O)N[C@@H](C)C(=O)NCC(=O)NCC(=O)N1CCC[C@H]1C(=O)N[C@@H](CO)C(=O)N[C@@H](CO)C(=O)NCC(=O)N[C@@H](C)C(=O)N1CCC[C@H]1C(=O)N1CCC[C@H]1C(=O)N1CCC[C@H]1C(=O)N[C@@H](CO)C(N)=O` [Compound 210] ({X30-βAla}-EGTFTSDYSI[Aib]LDKIAQK([AEEA-AEEA-γGlu-C20 diacid])AFVQWLIAGGPSSGAPPPS-NH2), the EC50 on GIP receptor [1] was 1 to 10 nM; on GLP-1 receptor [2] it was 0.1 to 1 nM; at GLP-1 receptor [3] it was greater than 1000 nM; at GIP receptor [4], greater than 1000 nM. The values for the maximal effect (Emax) at GIP receptor [1] and on GLP-1 receptor [2] were 101% and 104%, respectively.
